Patent publication US20230255943A1, “MMP-9 AND MMP-12 INHIBITION FOR TREATING SPINAL CORD INJURY OR RELATED INJURY TO NEUROLOGICAL TISSUE” (The University of Birmingham, priority 2020, published 2023)

Assays:
[1] = tested on: mice with DC crush injury; assay: BSCB integrity by albumin immunoreactivity; assay type: in vivo, mouse; conditions: oral
From the text: After killing animals by exposure to rising concentrations of CO2, mice were intracardially perfused with 4% formaldehyde (TAAB Laboratories, Berkshire, UK) in 0.1M phosphate buffered saline (PBS). The lesion site+5 mm either side were dissected out, post-fixed in 4% formaldehyde and subjected to a graded series of sucrose solutions for cryoprotection. Spinal cords were blocked in OCT mounting compound (TAAB laboratories), sectioned longitudinally at 15 μm-thick using a cryostat (Brights Instruments, Huntingdon, UK) before being collected on charged glass slides (ThermoFisher Scientific, Loughborough, UK) and kept at −20° C. until required. Slides were numbered consecutively and sections from the middle of the lesion site were chosen for all immunohistochemical analyses, as described by previously (Surey S, Berry M, Logan A, Bicknell R, Ahmed Z. Differential cavitation, angiogenesis and wound-healing responses in injured mouse and rat spinal cords. Neuroscience 2014; 275: 62-80).
The integrity of the BSCB was assessed using albumin immunoreactivity in the spinal cord at 3 days after injury, as a surrogate marker of BSCB disruption. Sections were thawed at room temperature and washed in PBS before blocking endogenous […] in H2O2. […]

MMP-2 = molecular target: T1, MMP-2 (Mus musculus, UniProt P33434); assay: MMP-2 activity after DC injury and AZD1236 administration; assay type: in vivo; conditions: oral and intrathecal, effective dose
T1 construct: from tissue

[2] = tested on: rats with DC crush injury; assay: Spinal cord water content after DC injury in rats; assay type: in vivo; conditions: rat DC injury, oral, 3 days
Protocol: DC crush injury was administered bilaterally at the T8 vertebral level as described previously (S. Surey, M. Berry, A. Logan, R. Bicknell, Z. Ahmed, Differential cavitation, angiogenesis and wound-healing responses in injured mouse and rat spinal cords. Neuroscience 275, 62-80 (2014); M. L. Read, S. Mir, R. Spice, R. J. Seabright, E. L. Suggate, Z. Ahmed, M. Berry, A. Logan, Profiling RNA interference (RNAi)-mediated toxicity in neural cultures for effective short interfering RNA design. J Gene Med 11, 523-534 (2009)). […]
The efficacy of oral AZD3342 in the DC injury model in adult Sprague-Dawley rat was also assessed. […]
The lesion site+3 mm either side for mice and the lesion site+5 mm either side for the rat DC model were dissected out and the water content of the spinal cord (as a measure of oedema) was determined at 3 days after DC and CC SCI, as described previously (S. Li, C. H. Tator, Effects of MK801 on evoked potentials, spinal cord blood flow and cord edema in acute spinal cord injury in rats. Spinal Cord 37, 820-832 (1999)). […] The percent water content was calculated as: water content (%)=[(wet weight-dry weight)/wet weight]×100%.

T1 sequence (P33434 110-662): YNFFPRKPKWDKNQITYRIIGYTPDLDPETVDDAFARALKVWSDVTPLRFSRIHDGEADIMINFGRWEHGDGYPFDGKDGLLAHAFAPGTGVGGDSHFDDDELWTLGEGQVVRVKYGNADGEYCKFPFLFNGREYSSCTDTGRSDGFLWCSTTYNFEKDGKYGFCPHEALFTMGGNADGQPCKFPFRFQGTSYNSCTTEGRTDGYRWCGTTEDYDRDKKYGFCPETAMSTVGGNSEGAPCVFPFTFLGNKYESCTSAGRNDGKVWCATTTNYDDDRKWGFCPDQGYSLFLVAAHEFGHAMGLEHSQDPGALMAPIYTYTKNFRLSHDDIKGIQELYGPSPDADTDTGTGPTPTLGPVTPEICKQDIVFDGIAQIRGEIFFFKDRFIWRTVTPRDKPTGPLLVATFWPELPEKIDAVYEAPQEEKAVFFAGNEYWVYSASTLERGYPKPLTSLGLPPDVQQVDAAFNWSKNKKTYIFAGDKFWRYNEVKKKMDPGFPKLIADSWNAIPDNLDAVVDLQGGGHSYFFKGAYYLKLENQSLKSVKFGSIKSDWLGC

Compound	suppression of area of BSCB breakdown (albumin immunoreactivity) ([1]; 24 h delayed treatment)	suppression of area of BSCB breakdown (albumin immunoreactivity) ([1]; immediately after injury, 3 days, vs DC+vehicle)	DC injury-induced rise in MMP-2 activity (MMP-2)	SCI-induced edema (spinal cord water content) [2]
C[C@]1(CS(=O)(=O)N2CC=C(C#Cc3cnc(C4CC4)nc3)CC2)NC(=O)NC1=O [AZD1236]	> 73%	> 75%	no difference	
C[C@]1(CS(=O)(=O)N2CCC(Oc3ccc(Cl)cn3)CC2)NC(=O)NC1=O [AZD3342, (5S)-5-[4-(5-chloro-pyridin-2-yloxy)-piperidine-1-sulfonylmethyl]-5-methylimidazolidine-2,4-dione]				suppressed
